From publication PMC5122408, “High throughput chemical library screening identifies a novel p110-δ inhibitor that potentiates the anti-myeloma effect of bortezomib” (Oncotarget, 2016)

Legend:
RPMI-8226 = assay: NCI-60 panel cell growth screen; type: cell-based, human; details: RPMI-8226 (Leukemia)
[1] = tested on: Myeloma/ Leukemia/ Lymphoma; assay: NCI-60 panel cell growth screen (Figure 6); type: cell-based, human
HCC-2998 = assay: NCI-60 panel cell growth screen; type: cell-based, human; details: HCC-2998 (Colon cancer)
IL-6 = IL-6 ELISA, MM cells co-cultured with BMSCs; type: cell-based, human
NCI-H23 = assay: NCI-60 panel cell growth screen; type: cell-based, human; details: NCI-H23 (NSCLC)
p110-α = p110-α (Homo sapiens, UniProt P42336); assay: Kinase inhibitory profile / PIP3 production; design: Inhibitory profile (kinase inhibition): key to the marks not given beside the values
SNB-19 = assay: NCI-60 panel cell growth screen; type: cell-based, human; details: SNB-19 (CNS Cancer)
DNA-PK = DNA-PK (Homo sapiens, UniProt P78527); assay: Kinase inhibitory profile; type: biochemical; details: Class IV PI3Ks; 10-point concentration assays
HT29 = assay: NCI-60 panel cell growth screen; type: cell-based, human; details: HT29 (Colon cancer)
[2] = tested on: peripheral blood mononuclear cells (PBMCs); assay: Apoptosis (in situ cell death detection) in PBMCs; type: cell-based; details: Figure 5B
A549 = assay: NCI-60 panel cell growth screen; type: cell-based, human; details: A549 (NSCLC)
U25 = assay: NCI-60 panel cell growth screen; type: cell-based, human; details: U25 (CNS Cancer)
PKCγ = assay: Kinase inhibitory profile; type: biochemical; details: Class II PI3Ks; 10-point concentration assays
HCT-116 = assay: NCI-60 panel cell growth screen; type: cell-based, human; details: HCT-116 (Colon cancer)
p110-δ = p110-δ (Homo sapiens, UniProt O00329); assay: Kinase inhibitory profile / PIP3 production; design: Inhibitory profile (kinase inhibition): key to the marks not given beside the values
mTOR = mTOR (Homo sapiens, UniProt P42345); assay: Kinase inhibitory profile; type: biochemical; details: Class IV PI3Ks; 10-point concentration assays
p110-β = p110-β (Homo sapiens, UniProt P42338); assay: Kinase inhibitory profile / PIP3 production
Procedure: To directly assess PI3K activity, PI3K was isolated by immunoprecipitation using an antibody to the p85 adapter subunit and the ability of the co-precipitated catalytic p110 subunit to convert PIP2 to PIP3 in a kinase reaction assessed by measuring the amount of PIP3 generated using a competitive ELISA [40, 41]. […] Lysates were centrifuged at 13,000 × rpm for 10 min and supernatants stored at −80°C. Frozen lysates were thawed and PI3K immunoprecipitated with 5 μl anti-PI3K p85 (Cell Signaling Technology, Danvers, MA) for 1 h at 4°C, followed by the addition of 60 μl of a 50% slurry of Protein A agarose beads for 1 h at 4°C. The immunoprecipitate was collected by centrifugation at 13,000 × rpm for 10 sec, washed 3 times in buffer A + 1% NP40, thrice with 0.1 M Tris-HCl, pH 7.4, 5 mM LiCl, 0.1 mM Na orthovanadate and twice with 10 mM Tris-HCl, pH 7.4, 150 mM NaCl, 5 mM ethylenediaminetetraacetic acid (EDTA), 0.1 mM Na orthovanadate. […] Reactions were incubated for 3 h at 37°C with 40 pmol PIP2 (Echelon Biosciences, Salt Lake City, UT). Reactions were stopped with EDTA (5 mM) and centrifuged at 13,000 × rpm at 4°C. Supernatants were transferred to a microtitre plate for a competitive ELISA (Echelon Biosciences) to quantify PIP3 generated. […] Absorbance was measured (450 nm) and PIP3 quantified using a standard curve generated with experimental samples and plotted on a log scale.

SF-295 = assay: NCI-60 panel cell growth screen; type: cell-based, human; details: SF-295 (CNS Cancer)
CXCR12 = assay: CXCL12/SDF-1 alpha ELISA, MM cells co-cultured with BMSCs; type: cell-based, human
MM.1S myeloma cells = assay: Mouse xenograft model of myeloma; type: in vivo, mice; details: subcutaneous myeloma xenograft; intravenous; bortezomib 0.5 mg/kg, DT97 10 mg/kg
Procedure: Five week old nude mice flanks are injected subcutaneously with MM.1S myeloma cells. Tumors formed within two weeks and mice were then treated intravenously with vehicle, bortezomib, DT97 or both bortezomib and DT97.
Subcutaneous tumors were generated after injection of myeloma cells. […] Vehicle or bortezomib was administered on days 1, 4, 8 and 11. Mice were euthanized when tumors reached 2 cm^3, became ulcerated or elicited neurologic or musculoskeletal complications that limited mobility and feeding. Survival and tumor growth were evaluated from the first day of treatment. Shown is the average of replicate measurements. […] Kaplan-Meier survival curves comparison of NOD. SCID mice after subcutaneous injection of parental myeloma cells treated with vehicle, DT97, bortezomib or both.
Mice received intravenous injection of either vehicle (PBS in 10% DMSO); bortezomib (0.5 mg/kg), DT97 (10 mg/kg) or both bortezomib and DT97. Tumor volume (TV) measurements were made using a vernier caliper and calculated using the formula: TV = 0.5 (a × b^2) where a is the long diameter and b the short diameter. Mice were euthanized when tumors reached 2 cm^3, became ulcerated or elicited neurologic or musculoskeletal complications that limited mobility and feeding.
In vivo statistical tests were performed using the 2-tailed Student t test.

FGFR = assay: Kinase inhibitory profile; type: biochemical; details: Other Clinically-relevant Kinases; 10-point concentration assays
K-562 = assay: NCI-60 panel cell growth screen; type: cell-based, human; details: K-562 (Leukemia)
NCI-H522 = assay: NCI-60 panel cell growth screen; type: cell-based, human; details: NCI-H522 (NSCLC)
KM12 = assay: NCI-60 panel cell growth screen; type: cell-based, human; details: KM12 (Colon cancer)
[3] = read-out: LC50 (the source's name)
[4] = Class I PI3Ks, 10-point concentration assays

Sequence of p110-α (P42336 whole entry): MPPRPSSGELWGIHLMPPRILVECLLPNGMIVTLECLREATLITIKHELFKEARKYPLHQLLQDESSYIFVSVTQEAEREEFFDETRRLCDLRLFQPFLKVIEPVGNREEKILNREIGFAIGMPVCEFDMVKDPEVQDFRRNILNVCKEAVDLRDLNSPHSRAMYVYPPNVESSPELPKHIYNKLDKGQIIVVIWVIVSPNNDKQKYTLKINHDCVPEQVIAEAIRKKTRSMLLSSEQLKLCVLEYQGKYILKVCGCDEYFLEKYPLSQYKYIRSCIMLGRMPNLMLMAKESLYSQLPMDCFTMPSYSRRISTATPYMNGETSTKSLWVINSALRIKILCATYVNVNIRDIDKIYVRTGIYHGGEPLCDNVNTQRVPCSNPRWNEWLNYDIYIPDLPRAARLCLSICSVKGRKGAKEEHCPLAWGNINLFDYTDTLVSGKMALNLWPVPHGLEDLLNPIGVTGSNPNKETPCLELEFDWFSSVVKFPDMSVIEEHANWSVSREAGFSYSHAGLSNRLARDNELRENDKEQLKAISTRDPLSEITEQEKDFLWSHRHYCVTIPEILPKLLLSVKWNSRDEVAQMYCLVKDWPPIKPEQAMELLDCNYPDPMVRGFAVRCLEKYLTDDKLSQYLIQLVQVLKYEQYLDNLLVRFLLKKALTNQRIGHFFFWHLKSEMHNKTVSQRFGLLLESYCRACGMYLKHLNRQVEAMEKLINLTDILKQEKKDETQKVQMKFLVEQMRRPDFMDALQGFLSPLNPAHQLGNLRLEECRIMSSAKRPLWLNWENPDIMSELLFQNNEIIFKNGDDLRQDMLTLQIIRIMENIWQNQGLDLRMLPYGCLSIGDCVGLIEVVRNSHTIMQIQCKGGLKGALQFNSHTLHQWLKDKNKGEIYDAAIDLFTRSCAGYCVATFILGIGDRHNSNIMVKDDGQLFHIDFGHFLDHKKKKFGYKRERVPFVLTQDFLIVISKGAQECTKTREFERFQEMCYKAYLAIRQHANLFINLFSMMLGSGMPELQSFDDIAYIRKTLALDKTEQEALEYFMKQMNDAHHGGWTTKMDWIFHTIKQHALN
Sequence of p110-α (P27986 whole entry partner): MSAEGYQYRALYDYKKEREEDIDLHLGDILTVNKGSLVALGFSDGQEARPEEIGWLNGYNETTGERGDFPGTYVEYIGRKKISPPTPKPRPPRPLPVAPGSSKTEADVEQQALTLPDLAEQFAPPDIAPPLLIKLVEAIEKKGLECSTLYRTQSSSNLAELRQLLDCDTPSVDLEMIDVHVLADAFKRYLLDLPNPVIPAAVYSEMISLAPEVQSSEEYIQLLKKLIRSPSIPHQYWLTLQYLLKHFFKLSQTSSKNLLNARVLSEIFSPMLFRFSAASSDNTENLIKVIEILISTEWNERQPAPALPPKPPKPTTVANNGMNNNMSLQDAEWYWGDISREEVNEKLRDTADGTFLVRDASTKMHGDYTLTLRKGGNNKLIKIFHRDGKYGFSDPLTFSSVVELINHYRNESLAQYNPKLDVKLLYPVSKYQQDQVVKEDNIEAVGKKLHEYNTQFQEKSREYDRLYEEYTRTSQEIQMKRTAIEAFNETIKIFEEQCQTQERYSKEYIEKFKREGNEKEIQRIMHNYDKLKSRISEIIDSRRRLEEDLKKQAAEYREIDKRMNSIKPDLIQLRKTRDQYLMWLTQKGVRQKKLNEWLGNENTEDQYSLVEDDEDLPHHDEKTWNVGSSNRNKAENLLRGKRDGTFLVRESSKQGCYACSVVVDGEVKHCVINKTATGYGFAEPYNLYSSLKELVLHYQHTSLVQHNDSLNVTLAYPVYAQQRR
Sequence of p110-δ (O00329 whole entry): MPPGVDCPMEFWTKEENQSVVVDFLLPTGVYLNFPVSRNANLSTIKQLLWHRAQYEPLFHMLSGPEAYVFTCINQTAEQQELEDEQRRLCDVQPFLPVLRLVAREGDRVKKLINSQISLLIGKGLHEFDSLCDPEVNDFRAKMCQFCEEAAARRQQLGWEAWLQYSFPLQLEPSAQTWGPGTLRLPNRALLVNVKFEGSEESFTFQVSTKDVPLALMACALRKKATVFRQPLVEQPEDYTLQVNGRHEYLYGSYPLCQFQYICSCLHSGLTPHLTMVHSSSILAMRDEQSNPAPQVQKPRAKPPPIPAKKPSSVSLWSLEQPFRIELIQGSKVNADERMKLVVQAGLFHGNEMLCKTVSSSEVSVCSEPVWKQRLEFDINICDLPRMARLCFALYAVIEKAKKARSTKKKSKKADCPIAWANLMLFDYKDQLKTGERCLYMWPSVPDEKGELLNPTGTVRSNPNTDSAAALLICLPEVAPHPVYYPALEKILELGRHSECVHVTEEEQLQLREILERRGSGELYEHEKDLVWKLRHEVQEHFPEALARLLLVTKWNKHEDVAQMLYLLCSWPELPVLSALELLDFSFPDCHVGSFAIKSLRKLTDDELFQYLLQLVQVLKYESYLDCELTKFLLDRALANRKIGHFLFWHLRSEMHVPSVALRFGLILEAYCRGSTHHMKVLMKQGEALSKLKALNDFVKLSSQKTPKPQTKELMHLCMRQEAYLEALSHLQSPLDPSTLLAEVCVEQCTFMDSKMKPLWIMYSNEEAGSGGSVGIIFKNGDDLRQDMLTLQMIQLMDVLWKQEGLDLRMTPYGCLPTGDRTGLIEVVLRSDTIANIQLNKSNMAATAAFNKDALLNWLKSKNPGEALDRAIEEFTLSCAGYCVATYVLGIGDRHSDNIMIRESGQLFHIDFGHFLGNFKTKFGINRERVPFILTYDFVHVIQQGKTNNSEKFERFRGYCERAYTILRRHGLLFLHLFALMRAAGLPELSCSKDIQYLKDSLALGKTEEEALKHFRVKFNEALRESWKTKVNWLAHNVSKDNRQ
Sequence of p110-δ (P27986 whole entry partner): as the sequence (P27986 whole entry partner) above
Sequence of p110-β (P42338 whole entry): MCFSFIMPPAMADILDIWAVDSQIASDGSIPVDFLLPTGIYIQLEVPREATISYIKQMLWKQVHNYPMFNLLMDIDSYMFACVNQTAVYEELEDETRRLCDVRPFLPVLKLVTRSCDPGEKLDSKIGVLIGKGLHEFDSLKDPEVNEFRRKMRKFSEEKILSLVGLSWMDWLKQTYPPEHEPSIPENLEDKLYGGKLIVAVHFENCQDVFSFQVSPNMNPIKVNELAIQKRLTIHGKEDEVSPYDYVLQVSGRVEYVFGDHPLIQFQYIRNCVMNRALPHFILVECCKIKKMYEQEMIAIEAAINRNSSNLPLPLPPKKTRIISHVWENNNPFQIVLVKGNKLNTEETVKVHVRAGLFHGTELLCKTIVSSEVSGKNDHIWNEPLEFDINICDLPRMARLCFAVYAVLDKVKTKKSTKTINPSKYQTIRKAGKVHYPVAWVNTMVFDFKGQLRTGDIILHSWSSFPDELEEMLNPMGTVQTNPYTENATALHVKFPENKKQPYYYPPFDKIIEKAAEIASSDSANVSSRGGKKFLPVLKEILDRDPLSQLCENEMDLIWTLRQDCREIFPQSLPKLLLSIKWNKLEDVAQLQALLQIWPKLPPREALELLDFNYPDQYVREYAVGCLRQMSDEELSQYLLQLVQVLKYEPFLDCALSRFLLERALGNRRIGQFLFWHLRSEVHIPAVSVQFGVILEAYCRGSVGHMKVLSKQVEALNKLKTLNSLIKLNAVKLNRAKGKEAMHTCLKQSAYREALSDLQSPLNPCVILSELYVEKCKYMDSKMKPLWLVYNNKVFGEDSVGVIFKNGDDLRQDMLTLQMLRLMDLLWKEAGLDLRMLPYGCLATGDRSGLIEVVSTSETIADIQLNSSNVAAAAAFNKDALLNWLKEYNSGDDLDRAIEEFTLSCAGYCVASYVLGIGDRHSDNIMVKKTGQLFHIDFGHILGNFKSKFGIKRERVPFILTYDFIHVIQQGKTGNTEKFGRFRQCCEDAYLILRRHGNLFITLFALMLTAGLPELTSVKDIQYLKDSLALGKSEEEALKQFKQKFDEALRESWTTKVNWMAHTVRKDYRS
Sequence of p110-β (P27986 whole entry partner): as the sequence (P27986 whole entry partner) above

## N-[4-hydroxy-3-(8-quinolinylthio)-1-naphthyl]benzenesulfonamide [DT97]
RPMI-8226
  GI50: 2.38 µM
  TGI: 7.90E-6
RPMI-8226; log concentration −4.0
  Percent Growth: −9%
RPMI-8226; log concentration −5.0
  Percent Growth: −10%
RPMI-8226; log concentration −6.0
  Percent Growth: 86%
RPMI-8226; log concentration −7.0
  Percent Growth: 92%
RPMI-8226; log concentration −8.0
  Percent Growth: 101%
RPMI-8226; [3]
  CC50: > 100 µM
[1]
  IC50: ~0.45 µM
HCC-2998
  GI50: 4.77 µM
  TGI: 1.91E-5
HCC-2998; log concentration −4.0
  Percent Growth: −82%
HCC-2998; log concentration −5.0
  Percent Growth: 32%
HCC-2998; log concentration −6.0
  Percent Growth: 88%
HCC-2998; log concentration −7.0
  Percent Growth: 106%
HCC-2998; log concentration −8.0
  Percent Growth: 105%
HCC-2998; [3]
  CC50: 52.4 µM
IL-6
  production of Il-6: induction was inhibited
NCI-H23
  GI50: 1.93 µM
  TGI: 1.28E-5
NCI-H23; log concentration −4.0
  Percent Growth: −58%
NCI-H23; log concentration −5.0
  Percent Growth: 7%
NCI-H23; log concentration −6.0
  Percent Growth: 67%
NCI-H23; log concentration −7.0
  Percent Growth: 102%
NCI-H23; log concentration −8.0
  Percent Growth: 98%
NCI-H23; [3]
  CC50: 75.9 µM
p110-α; [4]
  Inhibitory profile (kinase inhibition): ++
p110-α; p110-α isoform, Figure 4B
  production of PIP3 (dose-dependent effect): weaker activity
SNB-19
  GI50: 1.98 µM
  TGI: 2.14E-5
SNB-19; log concentration −4.0
  Percent Growth: −59%
SNB-19; log concentration −5.0
  Percent Growth: 29%
SNB-19; log concentration −6.0
  Percent Growth: 59%
SNB-19; log concentration −7.0
  Percent Growth: 94%
SNB-19; log concentration −8.0
  Percent Growth: 95%
SNB-19; [3]
  CC50: 78.3 µM
DNA-PK
  Inhibitory profile (kinase inhibition): +
HT29
  GI50: 2.42 µM
  TGI: 1.44E-5
HT29; log concentration −4.0
  Percent Growth: −44%
HT29; log concentration −5.0
  Percent Growth: 8%
HT29; log concentration −6.0
  Percent Growth: 76%
HT29; log concentration −7.0
  Percent Growth: 108%
HT29; log concentration −8.0
  Percent Growth: 103%
HT29; [3]
  CC50: > 100 µM
[2]
  apoptosis: did not induce apoptosis
A549
  GI50: 0.747 µM
  TGI: 1.81E-5
A549; log concentration −4.0
  Percent Growth: −46%
A549; log concentration −5.0
  Percent Growth: 16%
A549; log concentration −6.0
  Percent Growth: 41%
A549; log concentration −7.0
  Percent Growth: 112%
A549; log concentration −8.0
  Percent Growth: 106%
U25
  GI50: 0.78 µM
  TGI: 2.42E-5
U25; log concentration −4.0
  Percent Growth: −13%
U25; log concentration −5.0
  Percent Growth: 8%
U25; log concentration −6.0
  Percent Growth: 43%
U25; log concentration −7.0
  Percent Growth: 107%
U25; log concentration −8.0
  Percent Growth: 103%
U25; [3]
  CC50: > 100 µM
PKCγ
  Inhibitory profile (kinase inhibition): none
HCT-116
  GI50: 0.555 µM
  TGI: 2.80E-6
HCT-116; log concentration −4.0
  Percent Growth: −92%
HCT-116; log concentration −5.0
  Percent Growth: −43%
HCT-116; log concentration −6.0
  Percent Growth: 34%
HCT-116; log concentration −7.0
  Percent Growth: 95%
HCT-116; log concentration −8.0
  Percent Growth: 98%
HCT-116; [3]
  CC50: 14.1 µM
p110-δ; [4]
  Inhibitory profile (kinase inhibition): +++
p110-δ; p110-δ isoform, Figure 4B
  production of PIP3 (dose-dependent effect): most potently
mTOR
  Inhibitory profile (kinase inhibition): +
p110-β; [4]
  Inhibitory profile (kinase inhibition): none
p110-β; p110-β isoform, Figure 4B
  production of PIP3 (dose-dependent effect): no effect
SF-295
  GI50: 2.84 µM
  TGI: 1.50E-5
SF-295; log concentration −4.0
  Percent Growth: −78%
SF-295; log concentration −5.0
  Percent Growth: 17%
SF-295; log concentration −6.0
  Percent Growth: 78%
SF-295; log concentration −7.0
  Percent Growth: 94%
SF-295; log concentration −8.0
  Percent Growth: 92%
SF-295; [3]
  CC50: 50.7 µM
CXCR12
  production of CXCR12: induction was inhibited
MM.1S myeloma cells
  overall survival (OS): 16 days
FGFR
  Inhibitory profile (kinase inhibition): none
K-562
  GI50: 0.929 µM
  TGI: 1.65E-5
K-562; log concentration −4.0
  Percent Growth: −12%
K-562; log concentration −5.0
  Percent Growth: 3%
K-562; log concentration −6.0
  Percent Growth: 48%
K-562; log concentration −7.0
  Percent Growth: 111%
K-562; log concentration −8.0
  Percent Growth: 108%
K-562; [3]
  CC50: > 100 µM
NCI-H522
  GI50: 2.12 µM
  TGI: 8.17E-6
NCI-H522; log concentration −4.0
  Percent Growth: −48%
NCI-H522; log concentration −5.0
  Percent Growth: −7%
NCI-H522; log concentration −6.0
  Percent Growth: 68%
NCI-H522; log concentration −7.0
  Percent Growth: 95%
NCI-H522; log concentration −8.0
  Percent Growth: 95%
KM12
  GI50: 2.03 µM
  TGI: 1.65E-5
KM12; log concentration −4.0
  Percent Growth: −87%
KM12; log concentration −5.0
  Percent Growth: 24%
KM12; log concentration −6.0
  Percent Growth: 61%
KM12; log concentration −7.0
  Percent Growth: 104%
KM12; log concentration −8.0
  Percent Growth: 104%
KM12; [3]
  CC50: 46.6 µM
